Measured values reported in paper doi:10.1101/2024.08.25.609621 (bioRxiv, 2024).
Where two headings read alike, the source gives them in different places.

How the values were obtained:
[1] = biological target: SARS-CoV-2 NSP3 macrodomain (Mac1), P43 crystal form (Severe acute respiratory syndrome coronavirus 2, UniProt P0DTD1); format: binding; details: for 1-BDC: PanDDA background density correction; for X-ray crystal structure: X-ray crystal structure determined (TRUE); for Total number of conformations: ligand conformations modeled in Mac1 crystal structure; for Binding site: site of ligand in X-ray crystal structure; for X-ray crystallography: Binding site: site where the ligand is bound in the X-ray crystal structure
[2] = biological target: SARS-CoV-2 NSP3 macrodomain (Mac1) (Severe acute respiratory syndrome coronavirus 2, UniProt P0DTD1); test: biochemical; format: binding; details: for Hill slope: HTRF dose-response fit, Mac1; for SARS CoV-2 macrodomain HTRF assay: Hillslope: dose-response fit; for IC50: dose-response, read-out: SARS CoV-2 macrodomain HTRF assay: IC50
[3] = occupancy estimate from PanDDA 1-BDC
[4] = crystal soak 10 mM, P43 crystals
[5] = occupancy estimate from PanDDA BDC

C[C@@H](O)[C@H](CO)Nc1ncnc2[nH]ccc12.O=C(O)C(F)(F)F [AVI-3730]
1-BDC [1]: 0.14 | X-ray crystal structure [1]: TRUE | Pandda run, overall: Modeled ([1]; crystal soak, soak concentration 10 mM): TRUE | Pandda run, overall: Hit ([1]; crystal soak, soak concentration 10 mM, TRUE = ligand hit): TRUE | Total number of conformations [1]: 1 | 2*(1-BDC) (%) [1, 3]: 28% | Binding site [1]: Adenosine | PanDDA run, DMSO background map: 1-BDC ([1]; soak concentration 10 mM): 0.14 | PanDDA run, DMSO background map: Hit ([1]; soak concentration 10 mM): TRUE

Cc1nn(C)cc1C1CCC(CO)N1c1ncnc2[nH]ccc12 (stereo not drawn) [AVI-3733]
1-BDC [1]: 0.1 | Pandda run, overall: Hit [1, 4]: TRUE | Pandda run, overall: Modeled [1, 4]: TRUE | PanDDA run, DMSO background map: 1-BDC ([1]; crystal soak 10 mM): 0.1 | PanDDA run, DMSO background map: Hit ([1]; crystal soak 10 mM): TRUE | Total number of conformations [1]: 1 | 2*(1-BDC) (%) [1, 3]: 20% | X-ray crystallography: Binding site [1]: Adenosine

OCC1CCC2(CCOCC2)CN1c1ncnc2[nH]ccc12 (stereo not drawn) [AVI-4065]
Hill slope [2]: 1.2 | SARS CoV-2 macrodomain HTRF assay: Hillslope [2]: 1.2

Cc1c[nH]c2ncnc(NCC3(O)CC[S+]([O-])CC3)c12 (stereo not drawn) [AVI-4198]
IC50 [2]: > 1000 µM

Cc1c[nH]c2ncnc(NCC3(O)CCS(=O)(=O)CC3)c12 [AVI-4199]
IC50 [2]: > 1000 µM

OC1(CNc2ncnc3[nH]ccc23)CCC2(CC1)OCCO2 [AVI-4315]
Hill slope [2]: 1.2 | SARS CoV-2 macrodomain HTRF assay: Hillslope [2]: 1.2

O=S1(=O)CCC(O)(CNc2ncnc3[nH]ccc23)CC1 [AVI-4316]
IC50 [2]: > 1000 µM

CC(Nc1ncnc2[nH]ccc12)C1(O)CCCCC1 (stereo not drawn) [AVI-4321]
Hill slope [2]: 1.2 | SARS CoV-2 macrodomain HTRF assay: Hillslope [2]: 1.2

CC(O)C(C)Nc1ncnc2[nH]ccc12 (stereo not drawn) [AVI-5158]
Occupancy difference (refined_occupancy - 2*(1-BDC)) [1]: 0 | Refined ligand occupancy (%) [1]: 34% | PanDDA run, DMSO background map: 1-BDC ([1]; event 1): 0.17 | 1-BDC [1]: 0.17 | X-ray crystal structure [1]: TRUE | Total number of conformations [1]: 2 | 2*(1-BDC) (%) [1, 5]: 34% | Binding site [1]: Adenosine

CC(C)C1CCCN1c1ncnc2[nH]ccc12 (stereo not drawn) [AVI-5216]
Occupancy difference (refined_occupancy - 2*(1-BDC)) [1]: 14 | Refined ligand occupancy (%) [1]: 40% | PanDDA run, DMSO background map: 1-BDC ([1]; event 1): 0.13 | 1-BDC [1]: 0.13 | Total number of conformations [1]: 1 | 2*(1-BDC) (%) [1, 5]: 26% | X-ray crystallography: Binding site [1]: Adenosine

FC(F)(F)C1CCCN1c1ncnc2[nH]ccc12 (stereo not drawn) [AVI-5996]
IC50 [2]: > 1000 µM
